From patent US9434688B2, “Indole derivatives as selective androgen receptor modulators (SARMS)” (Janssen Pharmaceutica, NV, priority 2004, dated 2016)
“And” between values parts separate entries of the source, which are not always exact repeats. Equal values may be shown once.

Experiments:
androgen receptor = target: T1, androgen receptor (Rattus norvegicus, UniProt P15207); assay: COS-7 Whole-Cell Androgen Receptor Binding Assay, Adenovirus Transduction
T1 sequence (P15207 1-902): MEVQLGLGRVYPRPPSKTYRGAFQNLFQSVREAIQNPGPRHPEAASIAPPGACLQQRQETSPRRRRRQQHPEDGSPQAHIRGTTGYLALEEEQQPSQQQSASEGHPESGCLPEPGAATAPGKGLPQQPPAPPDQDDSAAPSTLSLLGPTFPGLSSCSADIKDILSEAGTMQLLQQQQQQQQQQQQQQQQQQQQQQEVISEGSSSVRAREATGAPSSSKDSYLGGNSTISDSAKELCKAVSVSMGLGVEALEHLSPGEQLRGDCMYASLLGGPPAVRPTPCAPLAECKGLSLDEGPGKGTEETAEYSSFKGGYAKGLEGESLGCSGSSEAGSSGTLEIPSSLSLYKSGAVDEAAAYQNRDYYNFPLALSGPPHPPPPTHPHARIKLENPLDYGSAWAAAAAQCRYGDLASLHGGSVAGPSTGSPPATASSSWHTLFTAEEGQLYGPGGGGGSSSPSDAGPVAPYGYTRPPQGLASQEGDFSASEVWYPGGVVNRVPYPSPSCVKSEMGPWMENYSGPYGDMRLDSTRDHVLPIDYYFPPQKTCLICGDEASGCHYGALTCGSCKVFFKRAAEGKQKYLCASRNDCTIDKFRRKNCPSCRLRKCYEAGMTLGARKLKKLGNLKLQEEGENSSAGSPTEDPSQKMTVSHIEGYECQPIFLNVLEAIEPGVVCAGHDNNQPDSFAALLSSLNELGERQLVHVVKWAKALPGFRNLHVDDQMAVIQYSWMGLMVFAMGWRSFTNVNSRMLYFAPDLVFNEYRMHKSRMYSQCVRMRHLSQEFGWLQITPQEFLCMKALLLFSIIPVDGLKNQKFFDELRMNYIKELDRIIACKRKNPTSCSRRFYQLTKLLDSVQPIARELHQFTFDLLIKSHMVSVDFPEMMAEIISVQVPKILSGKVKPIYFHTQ
Description: COS-7 cells were plated in 96-well plates at 20,000 cells per well, in a solution of DMEM/F12 (GIBCO) containing 10% (v/v) charcoal-treated fetal bovine serum (Hyclone) and lacking phenol red. The cells were then incubated overnight at 37° C. in 5% (v/v) humidified CO2.
Test compound solutions were prepared by diluting the test compound in 100% (v/v) DMSO, if necessary.
Next, 1 mL of DMEM/F12 lacking phenol red was pipetted into each of the wells of a 2-mL 96-well assay block. […] The wells were carefully mixed by pipette.
In a 15 mL or 50 mL sterile centrifuge tube, a dilution in DMEM/F12 of the adenovirus AdEasy+rAR at a moi of 1:50 per well was prepared.
The medium was removed from the 96-well plates by inversion and the plates dried very briefly, inverted, on a sterile towel. As soon as possible after medium removal, 40 μL of the diluted test compound was added to each well, in duplicate. […] The plates were then incubated for 48 hours at 37° C. in 5% (v/v) humidified CO2.
The medium was removed from the above incubated plates by inversion and dried. Each well was then washed with 0.35 mL of 1×PBS. The PBS was then removed from the plates by inversion and the plates dried.
To each well was then added 50 μL of 0.5% (v/v) Triton X-100 (Sigma) in 1×PBS and the plates placed on a rotary shaker for 5 min. The contents of each well were then transferred to an OptiPlate-96 (Packard) scintillation plate. To each well was then added 0.2 mL of Microscint-20 (Packard) and the wells counted on a TopCount (Packard).
Percent inhibition was determined by testing dilutions of the test compound (usually duplicates of 10 μM) in the binding assay. Counts per well were measured and percents of inhibition determined. […] Counts per well were measured and IC50s determined by linear regression.

[1] = tested on: castrated male Sprague Dawley rats; assay: Ventral Prostate and Seminal Vesicle Weight In Vivo Assay; set-up: species or system rat; key: active: non weight adjusted prostate weight was ≦40 mg or the % Inhibition prostate weight, body weight adjusted was ≧40% @ 2 mg/day dosage; inactive: they did not meet the specified criteria defined above; details: immature castrated male rats, once daily for five days, with testosterone propionate 2 mg/kg subcutaneously
Description: Immature (approximately 50 g) castrated male Sprague Dawley rats (Charles River) were treated once daily for five days with test compound (usually given orally at 40 mg/kg in a volume of 0.3 mL, in 30% cyclodextrin or 0.5% methylcellulose vehicle) and with testosterone propionate (given subcutaneously by injection at the nape of the neck at 2 mg/kg, in a volume of 0.1 mL in sesame oil). On the sixth day, the rats were euthanized by asphyxiation in carbon dioxide. Ventral prostates and seminal vesicles were removed and their wet weights determined.
A test compound was said to be “active” if the non weight adjusted prostate weight was ≦40 mg or the % Inhibition prostate weight, body weight adjusted was ≧40% @ 2 mg/day dosage.

CCSCC(O)c1cc2cc([N+](=O)[O-])c(C(F)(F)F)cc2[nH]1 (racemic) [compound 158]
% Inhibition (androgen receptor): 62% and 56%
active / inactive: inhibition of testosterone-enhanced prostate weight [1]: inactive
